Read-outs that look alike come from different tables or passages of the source.
Key:
patients = conditions: Dubinsky et al. 2001; cited from earlier work
[1] = system: Caucasian patients with IBD; conditions: for Odds ratio, All side effects: ADR n = 62 vs controls n = 68; for Odds ratio, Hepatotoxicity / Odds ratio, Other: n = 4 vs controls; for Odds ratio, Neutropenia: n = 11 vs controls; for Odds ratio, Flu-like symptoms: n = 16 vs controls
[2] = ITPA 94C>A, TPMT heterozygous genotypes excluded

## Nc1nc2nc[nH]c2c(=S)[nH]1 [thioguanine, 6-thioguanine]
patients
  use in patients with 6-MP/AZA-related toxicity: used successfully

## Cn1cnc([N+](=O)[O-])c1Sc1ncnc2nc[nH]c12 [azathioprine]
[1]; ITPA 94C > A variant genotype
  Odds ratio, All side effects: 4.2
[1]; ITPA 94C > A
  Odds ratio, Hepatotoxicity: 10.3
  Odds ratio, Other: 3.4
  Odds ratio, Neutropenia: 1.0
  Odds ratio, Flu-like symptoms: 4.7
[1]; ITPA 94C > A, n = 6 vs controls
  Odds ratio, Rash: 10.3
[1]; ITPA 94C > A, n = 8 vs controls
  Odds ratio, Pancreatitis: 6.2
[1]; ITPA 94C > A, n = 13 vs controls
  Odds ratio, Nausea and vomiting: 3.1
[1]; [2]
  Odds ratio, Nausea and vomiting: 6.2
  Odds ratio, Pancreatitis: 7.8
  Odds ratio, Rash: 15.5
[1]; ITPA 94C>A, TPMT heterozygous genotypes excluded from side-effect cohort
  Odds ratio, adverse drug reactions: 5.3
[1]; ITPA IVS2 + 21A > C variant genotype
  Odds ratio, All side effects: 0.7
[1]; ITPA IVS2 + 21A > C
  Odds ratio, Hepatotoxicity: 0.5
  Odds ratio, Other: 4.2
  Odds ratio, Neutropenia: 0.4
  Odds ratio, Flu-like symptoms: 1.0
[1]; ITPA IVS2 + 21A > C, n = 6 vs controls
  Odds ratio, Rash: 0.9
[1]; ITPA IVS2 + 21A > C, n = 8 vs controls
  Odds ratio, Pancreatitis: 0.6
[1]; ITPA IVS2 + 21A > C, n = 13 vs controls
  Odds ratio, Nausea and vomiting: 0.4
[1]; TPMT *3A + C variant genotype
  Odds ratio, All side effects: 1.7
[1]; TPMT *3A + C
  Odds ratio, Hepatotoxicity: 2.9
  Odds ratio, Neutropenia: 0.9
  Odds ratio, Flu-like symptoms: 0.3
[1]; TPMT *3A + C, n = 6 vs controls
  Odds ratio, Rash: 4.4
[1]; TPMT *3A + C, n = 8 vs controls
  Odds ratio, Pancreatitis: 1.3
[1]; TPMT *3A + C, n = 13 vs controls
  Odds ratio, Nausea and vomiting: 5.5
[1]; TPMT and ITPA 94C>A genotypes combined
  Odds ratio, risk of experiencing an adverse drug reaction: 3.5
[1]; of the 4 re-challenged patients heterozygous for a variant TPMT allele
  patients remaining intolerant on re-challenge with reduced dose: two patients remained intolerant
[1]; of the 62 patients suffering adverse drug reactions
  patients in whom therapy could be continued at full dose: 5
[1]; patients with ITPA 94C>A alleles
  patients who tolerated a reduced dose: 3 of 6
IBD patients; ITPA 94C>A, 6 patients
  Odds ratio, Rash: 10.833
IBD patients; ITPA 94C>A, 11 patients
  Odds ratio, flu-like symptoms: 6.190
IBD patients; ITPA 94C>A, 64 ADR patients vs 71 without side-effects, dominant model
  Odds ratio, adverse drug reactions to AZA therapy: 4.239
IBD patients; variant TPMT genotypes, subset of 14 patients
  Odds ratio, Nausea and vomiting: 5.079

Source: patent US7972780B2, “ITPase gene polymorphisms associated with adverse drug reactions to azathioprine therapy” (Guy's and St. Thomas' NHS Foundation Trust, priority 2004, dated 2011)
